Patent US20220184032A1, “INDOLINE DERIVATIVES FOR TREATMENT AND/OR PREVENTION OF FIBROSIS DISEASES” (Taipei Medical University, priority 2015, published 2022)
Read-outs that look alike come from different tables or passages of the source.

Key:
[1] = tested on: BLM-induced lung fibrosis; assay: Bleomycin (BLM)-induced lung fibrosis mice model, preventive model; assay type: in vivo; conditions: days 1 to 21 after BLM
Method: (§1) In preventive model, C57BL/6JNarl mice (8 weeks) were treated with bleomycin (BLM, 0.05 U/50 μl) or PBS (50 μl) by endotracheal administration. TMU-C-0012 (25, 50, 100 mg/kg/day, q.d.) and dexamethasone (0.5 mg/kg/day, q.d.) were administered orally to bleomycin-treated mice from 1 to 21 days after BLM treatment. On day 21, the mice were sacrificed and, the histologic analysis of lung tissue was performed by hematoxylin-eosin (H&E) staining (original magnification, ×100). In therapeutic model, C57BL/6JNarl mice (8 weeks) were treated with bleomycin (BLM, 0.05 U/50 μl) or PBS (50 μl) by endotracheal administration. TMU-C-0012 (25, 50, 100 mg/kg/day, q.d.) and pirfenidone (200 mg/kg/day, q.d.) were administered orally to bleomycin-treated mice from 10 to 38 days after BLM treatment. On day 39, the mice were sacrificed, and the histologic analysis of lung tissue was performed by hematoxylin-eosin (H&E) staining (original magnification, ×100).

in vitro = conditions: Chinese hamster, CHO cells with S9, % Cytotoxicity Cell Numbers; for cytotoxicity at 31 µM: 3.1E−05 M
[2] = tested on: OVA-induced lung fibrosis; assay: OVA lung fibrosis mice model; assay type: in vivo; conditions: weeks 4 to 12
Method: C57BL/6JNarl mice (8 weeks) were treated with OVA (50 μg/50 μl/day) or PBS (50 μl/day) by i.p. injection for 4 weeks. Then, mice were exposure of OVA (5% aerosol exposure) or PBS (aerosol exposure) for 8 weeks. TMU-C-0012 (25 mg/kg/day, q.d.) and dexamethasone (25 mg/kg/day, q.d.) were administered orally to OVA-injected mice from 4 weeks to 12 weeks. On weeks 12, the mice were sacrificed, and the histologic analysis of lung tissue was performed by hematoxylin-eosin (H&E) staining (original magnification, ×100).

[3] = tested on: Salmonella typhimurium TA98; assay: Ames test, TA98
Method: (§2) Two histidine auxotrophic mutants (TA98 and TA100) of Salmonella typhimurium were used. Test strains were obtained from the frozen working stock vial and thawed at room temperature. A 0.2 mL aliquot was inoculated into 25 mL nutrient broth medium and then incubated at 35-37° C. with shaking (120 rpm) for 16-18 hours. The test substance was dissolved in DMSO with 10-fold dilutions to obtain 4 stock concentrations at 30,000, 3,000, 300 and 30 μg/mL. Rat liver microsome enzyme homogenate (S9) mixture was prepared containing 8 mM MgCl2, 33 mM KCl, 4 mM NADP, 5 mM glucose-6-phosphate, 100 mM NaH2PO4 (pH 7.4) and 4% (v/v) Aroclor 1254-induced male rat liver microsome enzyme homogenate (S9). A […] aliquot of test compound stock solution was combined with 0.1 mL strain culture and with 0.5 mL rat liver enzyme homogenate (S9) mixture or 0.5 mL PBS, and then the mixture was incubated at 35-37° C. with shaking (120 rpm) for 20 min. Molten top agar (2 mL containing 0.05 mM histidine and 0.05 mM biotin) was added, and then the mixture was poured onto the surface of a minimal glucose agar plate (30 mL of bottom agar per petri plate) to obtain final test substance concentrations at 3000, 300, 30 and 3μg/plate. The plates were incubated at 37° C. for 72 hours, and then the numbers of His+ revertant colonies were counted. Treatments resulting in a three-fold increase (≥3×) in revertant colonies compared to the vehicle control were considered mutagenic. Treatments that reduced the colony counts to ≤50% of the vehicle control were considered cytotoxic. Assays were performed in triplicate.

[4] = tested on: CC14-induced liver fibrosis; assay: CC14-induced liver fibrosis in mice; assay type: in vivo; conditions: weeks 2 to 6
Method: C57BL/6JNarl mice (8 weeks) were treated with CC14 (1 μl/μg/BW, q.w.) or PBS (1 μl/μg/BW, q.w.) by i.p. injection for 6 weeks. TMU-C-0012 (25, 50, 100 mg/kg/day, q.d.) and pirfenidone (250 mg/kg/day, q.d.) were administered orally to CC14-injected mice from 2 weeks to 6 weeks. On day 43, the mice were sacrificed, and the α-SMA analysis of liver tissue was performed by IHC staining (original magnification, ×100).

[5] = tested on: BLM-induced lung fibrosis; assay: Bleomycin (BLM)-induced lung fibrosis mice model, therapeutic model; assay type: in vivo; conditions: days 10 to 38 after BLM
Method: as §1

[6] = tested on: Salmonella typhimurium TA100; assay: Ames test, TA100
Method: as §2

[7] = reference compound, first section (CHO + S9, HCA), 3.6E−05 M
[8] = first section (CHO + S9, HCA), 1.3E−04 M
[9] = first section (CHO + S9, HCA), 2.5E−04 M
[10] = first section (CHO + S9, HCA), 5.0E−04 M
[11] = first section (CHO + S9, HCA), 6.3E−05 M
[12] = second section (CHO + S9, HCA), 1.6E−05 M
[13] = second section (CHO + S9, HCA), 7.8E−06 M
[14] = TA98, Without S9, 3000 μg/plate
[15] = first section (CHO + S9, HCA), 3.1E−05 M
[16] = second section (CHO + S9, HCA), 3.1E−05 M
[17] = TA100, Without S9, 300 μg/plate
[18] = TA100, Without S9, 3000 μg/plate

With `O=P1(N(CCCl)CCCl)NCCCO1` (stereo not shown) [Cyclophosphamide, reference compound] the “% Cytotoxicity CBPI Index” value (CHO; [7]) was 46.3%, the “% Micronucleated Cells” value (CHO; [7]) was 5.31% and the “Test Result” value (CHO; [7]) was “+ (p < 0.05 by t-test and % of micronucleated cells at least 3-fold higher than background levels.)”.

In the case of `CO[C@@]12[C@H](COC(N)=O)C3=C(C(=O)C(C)=C(N)C3=O)N1C[C@@H]1N[C@@H]12` [Mitomycin C, reference compound], the “% Micronucleated Cells” value (CHO; reference compound, second section (CHO + S9, HCA), 3.0E−07 M) is reported as 4.38%.

For `O=C(/C=C/c1ccc2c(c1)CCN2S(=O)(=O)c1ccccc1)NO` [TMU-C-0012, 3-(1-Benzenesulfonyl-2,3-dihydro-1H-indol-5-yl)-N-hydroxyacrylamide], the “inhibition of BLM-induced lung fibrosis” value ([1]; 25, 50, 100 mg/kg/day q.d. orally, H&E lung histology day 21) was “inhibits BLM-induced lung fibrosis in a dose-dependent manner”, the “efficacy in the inhibition compared with dexamethasone” value ([1]; dexamethasone 0.5 mg/kg/day q.d. orally) was “higher than dexamethasone” and the cytotoxicity at 0.00013 M (in vitro; [8]) was 37.6%. It also gave a cytotoxicity at 0.00025 M (in vitro; [9]) of 51.8%, a cytotoxicity at 31 µM (in vitro; first section (CHO + S9, HCA)) of 19.1% and a cytotoxicity at 0.0005 M (in vitro; [10]) of 61.7%. The cytotoxicity at 63 µM (in vitro; [11]) was 31.9%, the cytotoxicity at 16 µM (in vitro; [12]) was 60.4% and the cytotoxicity at 31 µM (in vitro; second section (CHO + S9, HCA)) was 69%. The cytotoxicity at 7.8 µM (in vitro; [13]) was 42.2%, the “inhibition of OVA-induced lung fibrosis” value ([2]; 25 mg/kg/day q.d. orally, H&E lung histology week 12) was “inhibits OVA-induced lung fibrosis in a dose dependent manner” and the “efficacy in inhibition compared with dexamethasone” value ([2]; dexamethasone 25 mg/kg/day q.d. orally) was “higher than dexamethasone”. The Cytotoxicity ([3]; TA98, With S9, 3 μg/plate) was “−”, the Mutagenicity ([3]; TA98, With S9, 3 μg/plate) was “−” and the Cytotoxicity ([3]; TA98, With S9, 30 μg/plate) was “−”. For the same molecule, the Mutagenicity ([3]; TA98, With S9, 30 μg/plate) was “−”, the Cytotoxicity ([3]; TA98, With S9, 300 μg/plate) was “−” and the Mutagenicity ([3]; TA98, With S9, 300 μg/plate) was “−”. The Cytotoxicity ([3]; TA98, With S9, 3000 μg/plate) was “−”, the Mutagenicity ([3]; TA98, With S9, 3000 μg/plate) was “−” and the Cytotoxicity ([3]; TA98, Without S9, 3 μg/plate) was “−”. For the same molecule, the Mutagenicity ([3]; TA98, Without S9, 3 μg/plate) was “−”, the Cytotoxicity ([3]; TA98, Without S9, 30 μg/plate) was “−” and the Mutagenicity ([3]; TA98, Without S9, 30 μg/plate) was “−”. The Cytotoxicity ([3]; TA98, Without S9, 300 μg/plate) was “−”, the Mutagenicity ([3]; TA98, Without S9, 300 μg/plate) was “−” and the Cytotoxicity [3, 14] was “−”. For the same molecule, the Mutagenicity [3, 14] was “−”, the “genotoxicity (Ames test results)” value ([3]; overall Ames test result, TA98 and TA100, with and without S9) was “negative” and the “inhibition on CC14-induced liver fibrosis” value ([4]; 25, 50, 100 mg/kg/day q.d. orally, α-SMA IHC of liver day 43) was “dose-dependent”. The “efficacy in inhibition compared with pirfenidone” value ([4]; pirfenidone 250 mg/kg/day q.d. orally) was “higher than pirfenidone”, the “inhibition of BLM-induced lung fibrosis” value ([5]; 25, 50, 100 mg/kg/day q.d. orally, H&E lung histology day 39) was “inhibits BLM-induced lung fibrosis in a dose-dependent manner” and the “efficacy in inhibition compared with pirfenidone” value ([5]; pirfenidone 200 mg/kg/day q.d. orally) was “higher than pirfenidone”. The “% Cytotoxicity CBPI Index” value (CHO; [8]) was 57.4%, the “% Micronucleated Cells” value (CHO; [8]) was 1.45% and the “% Cytotoxicity CBPI Index” value (CHO; [9]) was 62.2%. For the same molecule, the “% Micronucleated Cells” value (CHO; [9]) was 1.76%, the “% Cytotoxicity CBPI Index” value (CHO; [15]) was 41.5% and the “% Micronucleated Cells” value (CHO; [15]) was 1.64%. The “% Cytotoxicity CBPI Index” value (CHO; [10]) was 68.8%, the “% Micronucleated Cells” value (CHO; [10]) was 1.94% and the “% Cytotoxicity CBPI Index” value (CHO; [11]) was 47.3%. The “% Micronucleated Cells” value (CHO; [11]) was 1.26%, the “genotoxicity (micronucleus assay)” value (CHO; overall result of the assay) was “negative” and the Flat (CHO; second section (CHO + S9, HCA), 1.3E−04 M) was “CYTO (High cytotoxicity resulting in an insufficient number of scored cells (≥80% cytotoxicity))”. For the same molecule, the “% Cytotoxicity CBPI Index” value (CHO; [12]) was 53.1%, the “% Micronucleated Cells” value (CHO; [12]) was 1.35% and the Flat (CHO; second section (CHO + S9, HCA), 2.5E−04 M) was “CYTO (High cytotoxicity resulting in an insufficient number of scored cells (≥80% cytotoxicity))”. For the same molecule, the “% Cytotoxicity CBPI Index” value (CHO; [16]) was 58.8%, the “% Micronucleated Cells” value (CHO; [16]) was 1.25% and the Flat (CHO; second section (CHO + S9, HCA), 6.3E−05 M) was “CYTO (High cytotoxicity resulting in an insufficient number of scored cells (≥80% cytotoxicity))”. For the same molecule, the “% Cytotoxicity CBPI Index” value (CHO; [13]) was 26.7%, the “% Micronucleated Cells” value (CHO; [13]) was 1.29% and the Cytotoxicity ([6]; TA100, With S9, 3 μg/plate) was “−”. For the same molecule, the Mutagenicity ([6]; TA100, With S9, 3 μg/plate) was “−”, the Cytotoxicity ([6]; TA100, With S9, 30 μg/plate) was “−” and the Mutagenicity ([6]; TA100, With S9, 30 μg/plate) was “−”. For the same molecule, the Cytotoxicity ([6]; TA100, With S9, 300 μg/plate) was “−”, the Mutagenicity ([6]; TA100, With S9, 300 μg/plate) was “−” and the Cytotoxicity ([6]; TA100, With S9, 3000 μg/plate) was “−”. The Mutagenicity ([6]; TA100, With S9, 3000 μg/plate) was “−”, the Cytotoxicity ([6]; TA100, Without S9, 3 μg/plate) was “−” and the Mutagenicity ([6]; TA100, Without S9, 3 μg/plate) was “−”. The Cytotoxicity ([6]; TA100, Without S9, 30 μg/plate) was “−”, the Mutagenicity ([6]; TA100, Without S9, 30 μg/plate) was “−” and the Cytotoxicity [6, 17] was “−”. The Mutagenicity [6, 17] was “−”, the Cytotoxicity [6, 18] was “−” and the Mutagenicity [6, 18] was “−”.
